Test results as given in US7452688B2, “Transformed cell with enhanced sensitivity to antifungal compound and use thereof” (Sumitomo Chemical Company, Limited, priority 2002, dated 2008).

Tested on: transformed budding yeast TM182-BcOS1-I365S
Experiment: Antifungal compound sensitivity test of transformed budding yeast TM182-BcOS1-I365S (Example 6)
Format: cell-based, Saccharomyces cerevisiae
Conditions: 30° C. 67 hours; for Degree of growth of budding yeast (%) TM182-BcOS1-I365S Gal-Ura-Leu medium: control medium
Procedure: The transformed budding yeast TM182-BcOS1-I365S prepared in Example 5 was cultured at 30° C. for 18 hours in a Glu-Ura-Leu medium. The absorbance at 600 nm of a cell suspension of the grown transformed budding yeast was measured, and a cell suspension diluted with sterilized distilled water to the absorbance of 0.1 was prepared. Further, a cell suspension in which the aforementioned cell suspension of the transformed budding yeast TM182-BcOS1-I365S was diluted 200-fold with a Glu-Ura-Leu medium and, as a control, a cell suspension in which the cell suspension was diluted 200-fold with a Gal-Ura-Leu medium were prepared. A solution in which each of Compound (1) to (3) was dissolved in dimethylsulfoxide (DMSO) to the concentration of 60 ppm, a solution in which each of Compounds (4) and (5) was dissolved in dimethylsulfoxide (DMSO) to the concentration of 2000 ppm, and a solution in which each of Compounds (6) and (7) was dissolved in dimethylsulfoxide (DMSO) to the concentration of 20 ppm were prepared, and two microplates were prepared in which each 2.0 μL per well of the Compound solution and DMSO as a control were dispensed into two wells. In one microplate among them, each 200 μL of cell suspensions of the transformed budding yeast TM182-BcOS1-I365S which had been prepared by dilution with a Glu-Ura-Leu medium as described above was dispensed, and cultured by allowing to stand at 30° C. for 67 hours. In another microplate, as a control, each 200 μL of cell suspensions of the transformed budding yeast TM182-BcOS1-I 365S which had been prepared by dilution with a Gal-Ura-Leu medium was dispensed, and cultured by allowing to stand at 30° C. for 67 hours. After culturing, the absorbance at 600 nm of each well was measured with a microplate reader.
Degrees of growths of both of the transformed budding yeasts cultured under the presence of Compounds (1) to (7) and budding yeast as a control therefor are shown in Table 2. Degrees of growths of both of the transformed budding yeasts and budding yeast as a control are expressed by a relative value in percentage, letting the absorbance at 600 nm at the concentration of the Compound of 0 ppm to be 100. It was confirmed that an inhibiting degree of growth of the transformed budding yeast TM182-BcOS1-I 365S by each test substance was grater than an inhibiting degree of growth of the transformed budding yeast AH22-BcOS1-I 365S by each test substance, and the transformed budding yeast TM182-BcOS1-I365S was a transformed cell with the enhanced sensitivity to an antifungal compound as compared with the transformed budding yeast AH22-BcOS1-I365S.

COP(=S)(OC)Oc1c(Cl)cc(C)cc1Cl [Compound (5), Tolclofos-methyl]
Degree of growth of budding yeast (%) TM182-BcOS1-I365S Gal-Ura-Leu medium (final concentration 20 ppm): 76%
Degree of growth of budding yeast (%) TM182-BcOS1-I365S Glu-Ura-Leu medium (final concentration 20 ppm): 13%

O=[N+]([O-])c1c(Cl)c(Cl)c(Cl)c(Cl)c1Cl [Compound (4), Quintozene]
Degree of growth of budding yeast (%) TM182-BcOS1-I365S Gal-Ura-Leu medium (final concentration 20 ppm): 101%
Degree of growth of budding yeast (%) TM182-BcOS1-I365S Glu-Ura-Leu medium (final concentration 20 ppm): 41%

N#Cc1c[nH]cc1-c1cccc(Cl)c1Cl [Compound (7), Fenpiclonil]
Degree of growth of budding yeast (%) TM182-BcOS1-I365S Gal-Ura-Leu medium (final concentration 0.2 ppm): 90%
Degree of growth of budding yeast (%) TM182-BcOS1-I365S Glu-Ura-Leu medium (final concentration 0.2 ppm): 22%

N#Cc1c[nH]cc1-c1cccc2c1OC(F)(F)O2 [Compound (6), Fludioxonil]
Degree of growth of budding yeast (%) TM182-BcOS1-I365S Gal-Ura-Leu medium (final concentration 0.2 ppm): 93%
Degree of growth of budding yeast (%) TM182-BcOS1-I365S Glu-Ura-Leu medium (final concentration 0.2 ppm): 7%
